The text below walks through data of ChEMBL document CHEMBL3880428, “Sulfonamide derivative having PGD2 receptor antagonistic activity” (2012).

Format in all cases: functional
Assay [1] has as its system Rattus norvegicus. As to the kind of experiment: Antiallergic activity in Brown Norway rat model of ovalbumin-induced asthma assessed as inhibition of airway hyperresponsiveness at 10 mg/kg, po qd for 3 consecutive days administered 1 hr prior to fourth exposure of antigen relative to control.
Assay [2] has as its system Rattus norvegicus. Briefly: Antiallergic activity in Brown Norway rat model of ovalbumin-induced asthma assessed as inhibition of infiltration of inflammatory cells in bronchoalveoli at 10 mg/kg, po qd for 3 consecutive days administered 1 hr prior to fourth exposure of antigen by hemocytometry based light microscopy relative to control.
The test system of assay [3] is Rattus norvegicus. As to the kind of experiment: Antiallergic activity in Brown Norway rat model of ovalbumin-induced asthma assessed as inhibition of mucus secretion in airway lavage fluid at 10 mg/kg, po qd for 3 consecutive days administered 1 hr prior to fourth exposure of antigen by ELISA relative to control.

Molecules are shown by their SMILES.

Usually inhibition in vivo stands for the change of the read-out against control, counted positive when it falls. For the compound `CC(C)Oc1ccc(S(=O)(=O)N2CCN(c3cccc(OCC(=O)O)c3)CC2)cc1`, the inhibition in vivo at 10 mg/kg was 50% in assay [1], 78% in assay [2] and 78% in assay [3].

With `CC(C)Oc1ccc(S(=O)(=O)N2CCN(c3ccccc3OCC(=O)O)CC2)cc1`, the inhibition in vivo at 10 mg/kg is 59% in assay [1], 76% in assay [2] and 79% in assay [3].
